Where a SMILES comes first, the peptide text is derived from it.
How the values were obtained:
ETA receptor = target: T1, ETA receptor (Sus scrofa, UniProt Q29010)
T1 sequence (Q29010 21-427): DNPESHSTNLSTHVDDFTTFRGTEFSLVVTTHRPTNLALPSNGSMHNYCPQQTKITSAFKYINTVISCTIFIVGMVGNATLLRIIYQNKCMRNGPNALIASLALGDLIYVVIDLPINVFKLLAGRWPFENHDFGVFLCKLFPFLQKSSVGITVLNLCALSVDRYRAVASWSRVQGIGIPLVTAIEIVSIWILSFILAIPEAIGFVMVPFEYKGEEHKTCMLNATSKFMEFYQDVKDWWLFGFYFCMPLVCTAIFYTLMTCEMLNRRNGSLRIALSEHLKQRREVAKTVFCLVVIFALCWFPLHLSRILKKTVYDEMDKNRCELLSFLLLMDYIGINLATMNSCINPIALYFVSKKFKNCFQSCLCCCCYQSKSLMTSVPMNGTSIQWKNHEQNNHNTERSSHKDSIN
Experimental: Porcine lung was homogenized with a Kinematica Polytron homogenizer (Lucern, Switzerland) three times at top speed for each 30 sec in 9 volumes of ice-cold 0.25 M sucrose solution containing 20 mM Tris-HCl (pH 7.4), 0.2 mM phenylmethylsulfonyl fluoride, 1 µM leupeptin, 1 µM pepstatin, 0.1 mM EDTA, and 0.5 mM EGTA. After centrifugation of the homogenate at 1,000 x g for 10 min at 4°C, the supernatant was centrifuged again at 20,000 x g for 20 min. The resulting pellet was washed three times as described above and used as a membrane source. The membrane was stocked in aliquots at -80°C until use.
ET-3 in the absence and presence of various amounts of nonlabeled ligands in a total volume of 1 ml of 20 mM HEPES (pH 7), 145 mM NaCl, 5 mM KCl, 3 mM MgCl₂ , 1 mM EGTA, 1 mg/ml bovine serum albumin, and 0.2 mg/ml bacitracin. […] The radioactivity in membrane pellet was measured in a gamma counter. Nonspecific binding was defined as membrane-associated radioactivity in the presence of saturating concentrations of ET(l00 nM). […] Total binding was always less than l5% of the total radioactivity added.
The specific binding site for ETs in the plasma membrane of porcine lung was detected. The binding to the ETA receptor was determined with [¹²⁵I]ET-1 in the presence of 1 nM unlabeled ET-3 and the binding to the ETB receptor was determined with [¹²⁵I]ET-3 alone. […]

guinea pig trachea = assay: Inhibition of the contraction of guinea pig trachea; type: cell-based; details: guinea pig tracheal rings
Experimental: The contraction of the guinea pig trachea was measured according to Br. J. Pharmacol. 98, 483, l989, by the following procedure.
Male guinea pigs weighing 350 - 500 g were stunned and bled. The trachea was rapidly removed and placed in an oxygenated (95% O₂ , 5% CO₂) Krebs solution. After removal of the adherent fat and connective tissues, the trachea was cut into 2 mm wide rings. The two rings were tied together, end to end, placed in a 30 ml organ bath and connected to an isometric force-transducer under an initial tension of 1.0 g.

Row | Structure (SMILES) | Ki (ETA receptor) | inhibition of ET-3-induced contraction of the trachea (guinea pig trachea; 100 nM, added 5 min prior to the addition of ET-3) | contraction of the trachea (guinea pig trachea; organ bath, high KCl (60 mM) as reference standard)
1 | CC[C@H](C)[C@H](NC(=O)[C@H](CC(=O)O)NC(=O)[C@H](CC(C)C)NC(=O)[C@H](Cc1c[nH]cn1)NC(=O)[C@H](C)NC(=O)[C@H](Cc1ccccc1)NC(=O)[C@H](Cc1ccc(O)cc1)NC(=O)[C@@H](NC(=O)[C@H](C)NC(=O)[C@H](CCC(=O)O)NC(=O)[C@H](CCCCN)NC(=O)[C@H](CC(=O)O)NC(C)=O)C(C)C)C(=O)N[C@H](C(=O)N[C@@H](Cc1c[nH]c2ccccc12)C(=O)O)[C@@H](C)CC [Compound (II)] (Ac-DKEAVYFAHLDIIW-OH) | 450 nM | significantly inhibited | 
2 | CC[C@H](C)[C@H](NC(=O)[C@H](CC(=O)O)NC(=O)[C@H](CC(C)C)NC(=O)[C@H](Cc1c[nH]cn1)NC(=O)[C@@H]1CSSC[C@H](N)C(=O)N[C@@H]([C@@H](C)O)C(=O)N[C@H]2CSSC[C@H](NC(=O)[C@H](CCC(=O)O)NC(=O)[C@H](CCCCN)NC(=O)[C@H](CC(=O)O)NC(=O)[C@H](CCCCN)NC(=O)[C@H](Cc3ccc(O)cc3)NC(=O)[C@H]([C@@H](C)O)NC(=O)[C@H](Cc3ccccc3)NC2=O)C(=O)N[C@@H](C(C)C)C(=O)N[C@@H](Cc2ccc(O)cc2)C(=O)N[C@@H](Cc2ccc(O)cc2)C(=O)N1)C(=O)N[C@H](C(=O)N[C@@H](Cc1c[nH]c2ccccc12)C(=O)O)[C@@H](C)CC [ET-3, endothelin-3, reference compound] |  |  | caused a contraction of the trachea in a concentration dependent manner
